Results reported in publication PMC5078989, “Targeted inhibition of the COP9 signalosome for treatment of cancer” (Nature Communications, 2016).

System: panel of cancer cell lines
Assay: Cell viability (CellTiter-Glo) dose-response across cancer cell line panel;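 further: after 72 h compound incubation with CellTiter-Glo ATP readout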
Type: cell-based, human
Conditions: Homo sapiens
Excerpt: Next, we explored the effect of CSN5 inhibition on the viability of cancer cells. To obtain a comprehensive picture, we generated dose–response curves with a CSN5 inhibitor across more than 500 cancer cell lines in a previously described standardized setting[47] (Supplementary Data 1).
A standardized CellTiter-Glo Assay (Promega #G7570) based on the quantification of ATP was applied according to the manufacturer's protocol to measure the amount of viable cells in culture. In brief, cells were seeded into 384-well plates at optimal density for each cell line. After 4 h, compounds were added at different concentrations in growth medium and incubated for another 72 h in a humidifying chamber at 37 °C and 5% CO2. […] EC50 values were calculated from the plot of percentage of inhibition versus inhibitor concentration using the nonlinear regression analysis software Origin 7.5SR6 (OriginLab Corp.).

## CC(C)C[C@H](NC(=O)[C@H](Cc1ccccc1)NC(=O)c1cnccn1)B(O)O [Bortezomib]
HCC1500, HCC1500
  EC50: 5.16 nM
HCC1569, HCC1569
  EC50: 6.77 nM
HCC1806, HCC1806
  EC50: 24.8 nM
HCC1937, HCC1937
  EC50: 7.46 nM
HCC1954, HCC1954
  EC50: 3.14 nM
HCC2218, HCC2218
  EC50: 9.79 nM
HCT-15, HCT-15
  EC50: 26.6 nM
HCT-116, HCT 116
  EC50: 6.91 nM
HEC-1-A, cell line HEC-1-A
  EC50: 15.5 nM
HEC-6, HEC-6
  EC50: 21.4 nM
HEC-50B
  EC50: 25.2 nM
HEC-59
  EC50: 7.32 nM
HEC-151
  EC50: 21.6 nM
HEC-251, HEC-251
  EC50: 9.46 nM
HEC-265
  EC50: 17 nM
HEL 92.1.7, HEL 92.1.7
  EC50: 5.21 nM
HEY A8, Hey-A8
  EC50: 56.7 nM
HGC-27, HGC-27
  EC50: 16.2 nM
HLC-1
  EC50: 11.1 nM
HLF
  EC50: 13.8 nM
HMC-1-8
  EC50: 7.01 nM
HMCB
  EC50: 9.61 nM
HPBALL, HPB-ALL
  EC50: 3.18 nM
HRT-18, HRT-18
  EC50: 53.1 nM
HT
  EC50: 1.72 nM
HT55, HT55
  EC50: 31 nM
HT115, HT115
  EC50: 8.52 nM
HT-29, HT-29
  EC50: 18.4 nM
HT-144, HT-144
  EC50: 8.93 nM
HT-1080, HT-1080
  EC50: 20.1 nM
HT-1376, HT-1376
  EC50: 18.1 nM
HTK-
  EC50: 17.1 nM
Hs 294T
  EC50: 11.4 nM
Hs 571.T
  EC50: 10.2 nM
Hs 611.T
  EC50: 6.13 nM
Hs 695T
  EC50: 3.73 nM
Hs 729
  EC50: 7.87 nM
Hs766T, Hs 766T
  EC50: 19.8 nM
Hs 936.T
  EC50: 8.25 nM
Hs 939.T
  EC50: 4.42 nM
Hs 940.T
  EC50: 3.97 nM
Hs 944.T
  EC50: 12.7 nM
Hs-578T, Hs 578T
  EC50: 10.3 nM
HuH-1, cell line huH-1
  EC50: 44.7 nM
HuP-T3, HUP-T3
  EC50: 7.39 nM
IGR-1, IGR-1
  EC50: 8.66 nM
IGR-37, IGR-37
  EC50: 8.3 nM
IGR-39, IGR-39
  EC50: 7.6 nM
IGROV-1, IGROV1
  EC50: 26.8 nM
IMR-32, IMR-32
  EC50: 5.94 nM
IPC-298, cell line IPC-298
  EC50: 9.44 nM
Ishikawa, Ishikawa (Heraklio) 02 ER-
  EC50: 16.1 nM
J82, J82
  EC50: 11.9 nM
JHH7, cell line JHH-7
  EC50: 10.2 nM
JHH-2, cell line JHH-2
  EC50: 18.3 nM
JHOM-1
  EC50: 4.86 nM
JHUEM-2
  EC50: 5.6 nM
JIMT-1, JIMT-1
  EC50: 13.9 nM
JJN-3, JJN-3
  EC50: 2.61 nM
JVM-2, JVM-2
  EC50: 4.69 nM
JVM-3, JVM-3
  EC50: 8.69 nM
JeKo-1, JeKo-1
  EC50: 7.3 nM
Jurkat
  EC50: 9.14 nM
K029AX
  EC50: 4.76 nM
K562, K-562
  EC50: 16.3 nM
KARPAS-299, KARPAS-299
  EC50: 5.88 nM
KARPAS-422, KARPAS-422
  EC50: 6.19 nM
KASUMI-2
  EC50: 3.8 nM
KATO III, cell line KATO III
  EC50: 7.88 nM
KCL-22, KCL-22
  EC50: 4.19 nM
KHM-1B
  EC50: 4.04 nM
KLE
  EC50: 12.8 nM
KM12, KM12
  EC50: 23.9 nM
KMM-1, KMM-1
  EC50: 4.45 nM
KMRC-1, KMRC-1
  EC50: 6.75 nM
KMRC-20
  EC50: 10.1 nM
KMS-11, KMS-11
  EC50: 3.19 nM
KMS-12-BM
  EC50: 5.34 nM
KMS-26, KMS-26
  EC50: 11.5 nM
KMS-28BM
  EC50: 3.85 nM
KMS-34, KMS-34
  EC50: 12.2 nM
KNS-62, KNS-62
  EC50: 19.3 nM
KO52
  EC50: 2.37 nM
KP-1N
  EC50: 7.49 nM
KP-1NL
  EC50: 9.41 nM
KP-N-SI9s
  EC50: 8.48 nM
KP-N-YN
  EC50: 20.2 nM
KPL-1, KPL-1
  EC50: 20.5 nM
KU812, KU812
  EC50: 4 nM
KYM-1
  EC50: 4.88 nM
KYO1, KYO-1
  EC50: 6.59 nM
KYSE-30, KYSE-30
  EC50: 7.82 nM
KYSE-70, cell line KYSE-70
  EC50: 18 nM
KYSE-150, cell line KYSE-150
  EC50: 6.63 nM
KYSE-270, cell line KYSE-270
  EC50: 10.3 nM
KYSE-410, cell line KYSE-410
  EC50: 21.2 nM
KYSE-450, KYSE-450
  EC50: 16 nM
KYSE-510, cell line KYSE-510
  EC50: 11.9 nM
KYSE-520, cell line KYSE-520
  EC50: 13.4 nM
Karpas-620, KARPAS-620
  EC50: 6.17 nM
Kelly
  EC50: 3.53 nM
Ki-JK
  EC50: 4.34 nM
L3.3
  EC50: 29.6 nM
L-363, L-363
  EC50: 5.51 nM
LAMA-84, LAMA-84
  EC50: 5.36 nM
LCLC-97TM1, LCLC-97TM1
  EC50: 8.39 nM
LCLC-103H
  EC50: 10.1 nM
LK-2, LK-2
  EC50: 11.7 nM
LMSU
  EC50: 10.3 nM
LN-18, LN-18
  EC50: 15.3 nM
LN-229, LN-229
  EC50: 8.7 nM
LOX IMVI
  EC50: 26.4 nM
LP-1, LP-1
  EC50: 5.99 nM
LS180, LS 180
  EC50: 16.4 nM
LS-411N, LS411N
  EC50: 17.3 nM
LXF-289, LXF-289
  EC50: 14.3 nM
Li-7, Li-7
  EC50: 15.6 nM
LoVo
  EC50: 13.4 nM
Loucy
  EC50: 2.54 nM
Lu-65, LU65
  EC50: 7.61 nM
Lu-99, LU99
  EC50: 15.4 nM
MB 157
  EC50: 6.39 nM
MC116, cell line MC116
  EC50: 9.81 nM
MCAS
  EC50: 8.1 nM
MCF7, MCF7
  EC50: 38 nM
MDA-MB-175-VII
  EC50: 10.3 nM
MDA-MB-231, MDA-MB-231
  EC50: 10.9 nM
MDA-MB-415, MDA-MB-415
  EC50: 16.1 nM
MDA-MB-436, MDA-MB-436
  EC50: 12.6 nM
MDA-MB-453, MDA-MB-453
  EC50: 6.73 nM
MDA-MB-468, MDA-MB-468
  EC50: 5.97 nM
MDST8, MDST8
  EC50: 8.17 nM
MEC1, MEC-1
  EC50: 4.98 nM
MEG-01, MEG-01
  EC50: 8.7 nM
MEL-JUSO
  EC50: 10.6 nM
MFE-296, cell line MFE-296
  EC50: 19.8 nM
MG-63, MG-63
  EC50: 5.92 nM
MHH-NB-11
  EC50: 10.4 nM
MIA PaCa-2, cell line MIA PaCa-2
  EC50: 15.1 nM
MINO
  EC50: 6.8 nM
MKN-1, cell line MKN1
  EC50: 6.81 nM
MKN-7, cell line MKN7
  EC50: 7.08 nM
MKN-45, cell line MKN-45
  EC50: 8.03 nM
MKN-74, cell line MKN74
  EC50: 8.77 nM
MM1.S, cell line MM1-S
  EC50: 2 nM
MOLM16, MOLM-16
  EC50: 1.95 nM
MOLM-13, MOLM-13
  EC50: 5.21 nM
MOLP-8, MOLP-8
  EC50: 7.29 nM
MOLT-16, MOLT-16
  EC50: 1.73 nM
MONO-MAC-6, MONO-MAC-6
  EC50: 10.9 nM
MOR/CPR
  EC50: 39.6 nM
MSTO-211H, cell line MSTO-211H
  EC50: 22 nM
MV4-11, cell line MV-4-11
  EC50: 5.18 nM
Malme-3M
  EC50: 3.27 nM
Maver1, cell line MAVER-1
  EC50: 6.73 nM
MeWo, cell line MeWo
  EC50: 8.08 nM
Mel202, cell line Mel202
  EC50: 10.1 nM
Mono-Mac-1, MONO-MAC-1
  EC50: 7.98 nM
